Measurements as given in US11420181B2, “Methods for suppression of ammonia formation from staphylococcus-xylosus and staphylococcus-cohnii” (Dow Global Technologies LLC, priority 2016, dated 2022).

Tests used:
[1] = system: Staphylococcus-cohnii; experiment: Lab headspace ammonia test on ground straw with synthetic poultry urine, Example 3; assay type: cell-based
Description: (§1) Synthetic Poultry Urine Preparation. In these Examples, synthetic urine was prepared as follows for each 100 g of synthetic poultry urine needed. The amounts can be scaled up or down as needed. The following components were added to a sterilized bottle: Urea (USP Grade): 0.43 g, Ammonia: 0.46 g, K3PO4 (USP grade): 6.8 g, Milli-Q water: 83.52 g. The bottle was capped and placed on a bottle roller at ambient temperature for 1 to 3 hours. The pH of the solution was measured to confirm the pH is between 13 and 14.
(§2) Bacteria Preparation. In these Examples, the Staphylococcus-cohnii and the Staphylococcus-cohnii/Staphylococcus-xylosus bacteria strains used were environmental isolates from poultry manure and cat litter respectively. As used herein, “Staphylococcus-cohnii/Staphylococcus-xylosus” refers to a bacteria strain that is an environmental isolate from cat feces that through DNA sequencing has been identified to be genetically similar to both Staphylococcus-cohnii and Staphylococcus-xylosus. The identifications were determined by DNA sequencing at an external lab with genus confidence level.
(§3) The bacteria strains were isolated on a sterile tryptic soy agar plate, grown for 2 days in a 30 degrees ° C. incubator and stored in a refrigerator. A fresh plate was prepared every 2 weeks.
The bacteria were grown the day before the start of the experiments by taking a loopful of the bacteria from the agar plate with a 10 uL loop and immersing it in 10 mL sterile tryptic soy broth filling half of the container. All bacteria used in the Examples are aerobic and therefore need air on top of the growth medium. The vials were incubated at 30 degrees C. in a shaking incubator at 100 rpm for 24 hours. The count of the bacteria in the growth media was determined by the serial dilutions method, where 10 serial dilutions of the growth medium in sterile Physiological Buffered Saline (PBS) solution are performed with 10× dilution each time. Each dilution was plated twice using 100 μL of growth media for each plate. The numbers of colonies were counted on the dilution plate that had between 30 and 300 colony forming units (CFU) on it. The number of colony forming units in the original growth media was then determined by back-calculating the number of dilutions. […] All pipettes, containers, tips, spoons etc. equipment used for these experiments were sterile in order to prevent contamination with other bacteria. Litters, treatments and chemicals used for preparing synthetic urine were used as-is, without sterilization.
Preparation of grinded straw bedding. A sterilized lab blender was loaded with straw and grinded at pulsed, high setting for 15-45 seconds. Then a new batch of straw was loaded to the blender. […]

[2] = system: Staphylococcus-xylosus/Staphylococcus-cohnii; experiment: Lab headspace ammonia test on ground straw with synthetic poultry urine, Example 4; assay type: cell-based
Description: as §1, §2, §3
The bacteria were grown the day before the start of the experiments by taking a loopful of the bacteria from the agar plate with a 10 uL loop and immersing it in 10 mL sterile tryptic soy broth filling half of the container. All bacteria used in the Examples are aerobic and therefore need air on top of the growth medium. […] The count of the bacteria in the growth media was determined by the serial dilutions method, where 10 serial dilutions of the growth medium in sterile Physiological Buffered Saline (PBS) solution are performed with 10× dilution each time. […] The numbers of colonies were counted on the dilution plate that had between 30 and 300 colony forming units (CFU) on it. The number of colony forming units in the original growth media was then determined by back-calculating the number of dilutions. […]

[3] = Barrel test experiments on used broiler litter, Examples 5-8; conditions: used rice hull litter in tubs, vs untreated control
Description: Used litter (rice hulls which may also contain poultry manure, moisture, feed residue and/or feathers) were acquired from a commercial broiler chicken farm and transported in plastic barrels. Twenty three kilograms of litter were weighed into 0.4 m^2 plastic tubs to cover the tubs to a depth of approximately 10 cm. The tubs were stored uncovered in a poultry rearing facility, and environmental conditions were controlled to mimic the conditions that would be experienced in a commercial broiler house (temperature around 32° C.).
Tubs were treated with NaHSO4 at a dose equivalent to 1 wt % Ammonia was then measured for 35 days.
Tubs were treated in two steps. A dose equivalent to 1 wt % of NaHSO4 as Acidifier was added to the tubs. After 24 hours, a dose equivalent to 3.2 wt % of Na2EDTA was added and dispersed. Ammonia was then measured for 35 days.
Tubs were treated in two steps. A dose equivalent to 1 wt % of NaHSO4 as Acidifier was added to the tubs. After 24 hours, a dose equivalent to 3.2 wt % of K2EDTA was added as an aqueous solution. Ammonia was then measured for 35 days.
Tubs were treated in two steps. A dose equivalent to 1.23 wt % of EDTA Acid was added to the tubs. After 24 hours, a dose equivalent to 3.2 wt % of Na2EDTA was added and dispersed. Ammonia was then measured for 35 days.

[4] = 1 day after treatment, vs untreated control
[5] = 3 days after treatment, untreated control 200+ ppm (above tube limit)

Compound | % improvement in headspace ammonia [1, 4] | % improvement in headspace ammonia [1, 5] | % improvement in headspace ammonia [2, 4] | % improvement in headspace ammonia [2, 5] | % improvement in headspace ammonia ([3]; 3 days after treatment) | % improvement in headspace ammonia ([3]; 7 days after treatment) | % improvement in headspace ammonia ([3]; 14 days after treatment) | % improvement in headspace ammonia ([3]; 21 days after treatment) | % improvement in headspace ammonia ([3]; 28 days after treatment)
O=C(O)CN(CCN(CC(=O)O)CC(=O)O)CC(=O)O.[K].[K] [2.5% K2EDTA sprayed on top, dipotassium ethylenediaminetetraacetic acid] | 64% | 5+ % | 57% | – | – | – | – | – | –
O=C(O)CN(CCN(CC(=O)O)CC(=O)O)CC(=O)O.[K].[K] [2.5% K2EDTA, dipotassium ethylenediaminetetraacetic acid] | 64% | 8+ % | 73% | 12+ % | – | – | – | – | –
O=S(=O)([O-])O.[Na+] [1 wt % NaHSO4, NaHSO4] | – | – | – | – | 92% | 74% | 37% | −37% | −16%
